From patent publication US20240376074A1, “NAMPT INHIBITORS AND USES THEREOF” (Remedy Plan, Inc., priority 2021, published 2024)

Biological target: T1, NAMPT (Homo sapiens, UniProt P43490)
T1 construct: purchased Abcam ab221819
Assay: NAMPT Activity Assay (Abcam #ab221819)
Assay type: biochemical
Conditions: purified NAMPT, percent inhibition from OD450 nm; compound concentration not given
Method: The NAMPT Activity Assay (Abcam #ab221819) was performed following manufacturers two-step reaction protocol. Briefly, compounds were added to a clear 96-well plate using the HP D300e Digital Dispenser. Purified NAMPT was added to all wells except the No NAMPT controls. Reaction Mix #1 was added to each well and the plate was incubated at 30*C for 1 hr followed by the addition of Reaction Mix #2. Absorbance was measured at OD450 nm using a multimode plate reader. Readings were recorded for 5 minutes and percent inhibition was calculated using: (1-(OD450 nm compound/OD450nm no drug))*100.

T1 sequence (P43490 whole entry): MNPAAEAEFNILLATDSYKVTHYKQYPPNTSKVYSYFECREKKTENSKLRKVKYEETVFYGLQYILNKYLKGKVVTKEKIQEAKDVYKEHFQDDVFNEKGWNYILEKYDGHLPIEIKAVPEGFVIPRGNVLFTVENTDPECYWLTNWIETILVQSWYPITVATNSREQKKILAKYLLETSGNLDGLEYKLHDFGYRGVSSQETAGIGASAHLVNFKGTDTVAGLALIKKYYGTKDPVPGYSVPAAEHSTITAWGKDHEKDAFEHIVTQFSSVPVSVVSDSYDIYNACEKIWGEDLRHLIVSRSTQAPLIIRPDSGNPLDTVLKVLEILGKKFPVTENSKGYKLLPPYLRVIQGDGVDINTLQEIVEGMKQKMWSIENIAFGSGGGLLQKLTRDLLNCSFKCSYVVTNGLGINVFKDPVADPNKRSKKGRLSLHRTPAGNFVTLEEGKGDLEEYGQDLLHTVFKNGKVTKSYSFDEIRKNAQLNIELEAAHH

SMILES	NAMPT Inhibition Code*
CC(=O)N(CC1CC1)c1ccc(-c2ccc(C(=O)NCCCc3cn[nH]c3)cn2)cc1C#N [I-T2306, 6-[4-[acetyl(cyclopropylmethyl)amino]-3-cyano-phenyl]-N-[3-(1H-pyrazol-4-yl)propyl]pyridine-3-carboxamide]	C (C = ≥66% inhibition)
COC(=O)c1cc(-c2ccc(C(=O)NCCc3cn[nH]c3)cn2)ccc1N(CC1CC1)C(C)=O [I-T2297, Methyl 2-[acetyl(cyclopropylmethyl)amino]-5-[5-[2-(1H-pyrazol-4-yl)ethylcarbamoyl]-2-pyridyl]benzoate]	C (C = ≥66% inhibition)
CC(=O)N(CC1CC1)c1ccc(-c2ccc(NC(=O)CCc3ccc(F)nc3)cn2)cc1Cl [I-T2384, N-[6-[4-[acetyl(cyclopropylmethyl)amino]-3-chloro-phenyl]-3-pyridyl]-3-(6-fluoro-3-pyridyl)propanamide]	B (B = >33 to <66% inhibition)
CC(=O)N(CC1CC1)c1ccc(-c2ccc(C(=O)NCCc3cccnc3)cn2)cc1C#N [I-T2305, 6-[4-[Acetyl(cyclopropylmethyl)amino]-3-cyano-phenyl]-N-[2-(3-pyridyl)ethyl]pyridine-3-carboxamide]	C (C = ≥66% inhibition)
CC(=O)N(CC1CC1)c1ccc(-c2ccc(C(=O)N3Cc4ccccc4C3)cn2)cc1Cl [I-T2270, N-[2-Chloro-4-[5-(isoindoline-2-carbonyl)-2-pyridyl]phenyl]-N-(cyclopropylmethyl)acetamide]	B (B = >33 to <66% inhibition)
CC(=O)N(CC1CC1)c1ccc(-c2ccc(NC(=O)Cc3ccc(Cl)cc3)cn2)cc1Cl [I-T2393, N-[6-[4-[acetyl(cyclopropylmethyl)amino]-3-chloro-phenyl]-3-pyridyl]-2-(4-chlorophenyl)acetamide]	C (C = ≥66% inhibition)
CC(=O)N(CC1CC1)c1ccc(-c2ccc(C(=O)NC3Cc4ccc(Br)cc4C3)cn2)cc1Cl (centres unmarked) [I-T2153, 6-[4-[Acetyl(cyclopropylmethyl)amino]-3-chloro-phenyl]-N-(5-bromoindan-2-yl)pyridine-3-carboxamide]	A (*A = <33% inhibition)
CC(=O)N(CC1CC1)c1ccc(-c2ccc(NC(=O)C(F)c3ccccc3)cn2)cc1Cl (centres unmarked) [I-T2331, N-[6-[4-[acetyl(cyclopropylmethyl)amino]-3-chloro-phenyl]-3-pyridyl]-2-fluoro-2-phenyl-acetamide]	B (B = >33 to <66% inhibition)
CC(=O)N(CC1CC1)c1ccc(-c2ccc(C(=O)NCCCc3cc[nH]n3)cn2)cc1C#N [I-T2313, 6-[4-[acetyl(cyclopropylmethyl)amino]-3-cyano-phenyl]-N-[3-(1H-pyrazol-5-yl)propyl]pyridine-3-carboxamide]	C (C = ≥66% inhibition)
CC(=O)N(CC(F)F)c1ccc(-c2ccc(C(=O)NCc3ccccc3)cn2)cc1Cl [I-T2284, 6-[4-[Acetyl(2,2-difluoroethyl)amino]-3-chloro-phenyl]-N-benzyl-pyridine-3-carboxamide]	A (*A = <33% inhibition)
CC(=O)N(CC1CC1)c1ccc(-c2ccc(NC(=O)Cc3ccc(F)cc3)cn2)cc1Cl [I-T2390, N-[6-[4-[acetyl(cyclopropylmethyl)amino]-3-chloro-phenyl]-3-pyridyl]-2-(4-fluorophenyl)acetamide]	B (B = >33 to <66% inhibition)
CC(=O)N(CC1CC1)c1ccc(-c2ccc(C(=O)NCCCc3cn[nH]c3)cn2)cc1F [I-T2302, 6-[4-[acetyl(cyclopropylmethyl)amino]-3-fluoro-phenyl]-N-[3-(1H-pyrazol-4-yl)propyl]pyridine-3-carboxamide]	C (C = ≥66% inhibition)
CC(=O)N(CC(F)F)c1ccc(-c2ccc(C(=O)NCCCc3cc[nH]n3)cn2)cc1Cl [I-T2287, 6-[4-[Acetyl(2,2-difluoroethyl)amino]-3-chloro-phenyl]-N-[3-(1H-pyrazol-3-yl)propyl]pyridine-3-carboxamide]	C (C = ≥66% inhibition)
COC(=O)c1cc(-c2ccc(C(=O)NCCc3cccnc3)cn2)ccc1N(CC1CC1)C(C)=O [I-T2296, Methyl 2-[acetyl(cyclopropylmethyl)amino]-5-[5-[2-(3-pyridyl)ethylcarbamoyl]-2-pyridyl]benzoate]	C (C = ≥66% inhibition)
CC(=O)N(CC(F)F)c1ccc(-c2ccc(C(=O)NCCCn3ccnc3)cn2)cc1Cl [I-T2288, 6-[4-[Acetyl(2,2-difluoroethyl)amino]-3-chloro-phenyl]-N-(3-imidazol-1-ylpropyl)pyridine-3-carboxamide]	C (C = ≥66% inhibition)

The remaining lines, values ahead:

NAMPT Inhibition Code*	SMILES
C (C = ≥66% inhibition)	CC(=O)N(CC1CC1)c1ccc(-c2ccc(C(=O)Nc3ccc4[nH]cnc4c3)cn2)cc1Cl [I-T2137, 6-[4-[Acetyl(cyclopropylmethyl)amino]-3-chloro-phenyl]-N-(1H-benzimidazol-5-yl)pyridine-3-carboxamide]
C (C = ≥66% inhibition)	CC(=O)N(CC1CC1)c1ccc(-c2ccc(C(=O)NCCc3cccnc3)cn2)cc1Cl [I-T2130, 6-[4-[Acetyl(cyclopropylmethyl)amino]-3-chloro-phenyl]-N-[2-(3-pyridyl)ethyl]pyridine-3-carboxamide]
C (C = ≥66% inhibition)	CC(=O)N(CC1CC1)c1ccc(-c2ccc(C(=O)NCCCc3cn[nH]c3)cn2)cc1Cl [I-T2269, 6-[4-[Acetyl(cyclopropylmethyl)amino]-3-chloro-phenyl]-N-[3-(1H-pyrazol-4-yl)propyl]pyridine-3-carboxamide]
C (C = ≥66% inhibition)	CC(=O)N(CC1CC1)c1ccc(-c2ccc(NC(=O)Cc3ccc(Cl)nc3)cn2)cc1Cl [I-T2391, N-[6-[4-[acetyl(cyclopropylmethyl)amino]-3-chloro-phenyl]-3-pyridyl]-2-(6-chloro-3-pyridyl)acetamide]
A (*A = <33% inhibition)	CC(=O)N(CC1CC1)c1ccc(-c2ccc(C(=O)NCc3ncco3)cn2)cc1Cl [I-T2364, 6-[4-[acetyl(cyclopropylmethyl)amino]-3-chloro-phenyl]-N-(oxazol-2-ylmethyl)pyridine-3-carboxamide]
B (B = >33 to <66% inhibition)	CC(=O)N(CC1CC1)c1ccc(-c2ccc(C(=O)NCc3ccsc3)cn2)cc1Cl [I-T2149, 6-[4-[Acetyl(cyclopropylmethyl)amino]-3-chloro-phenyl]-N-(3-thienylmethyl)pyridine-3-carboxamide]
C (C = ≥66% inhibition)	CC(=O)N(CC1CC1)c1ccc(-c2ccc(C(=O)NCC3CCCCC3)cn2)cc1Cl [I-T2337, 6-[4-[acetyl(cyclopropylmethyl)amino]-3-chloro-phenyl]-N-(cyclohexylmethyl)pyridine-3-carboxamide]
C (C = ≥66% inhibition)	CC(=O)N(CC1CC1)c1ccc(-c2ccc(C(=O)Nc3cnc4nccn4c3)cn2)cc1Cl [I-T2140, 6-[4-[Acetyl(cyclopropylmethyl)amino]-3-chloro-phenyl]-N-imidazo[1,2-a]pyrimidin-6-yl-pyridine-3-carboxamide]
C (C = ≥66% inhibition)	CC(=O)N(CC1CC1)c1ccc(-c2ccc(C(=O)NCCc3c[nH]cn3)cn2)cc1Cl [I-T2150, 6-[4-[Acetyl(cyclopropylmethyl)amino]-3-chloro-phenyl]-N-[2-(1H-imidazol-4-yl)ethyl]pyridine-3-carboxamide]
C (C = ≥66% inhibition)	CC(=O)N(CC1CC1)c1ccc(-c2ccc(C(=O)NCc3cccc(F)c3)cn2)cc1Cl [I-T2341, 6-[4-[acetyl(cyclopropylmethyl)amino]-3-chloro-phenyl]-N-[(3-fluorophenyl)methyl]pyridine-3-carboxamide]
A (*A = <33% inhibition)	CCOc1ccc(CNC(=O)c2ccc(-c3ccc(N(CC4CC4)C(C)=O)c(Cl)c3)nc2)cn1 [I-T2373, 6-[4-[acetyl(cyclopropylmethyl)amino]-3-chloro-phenyl]-N-[(6-ethoxy-3-pyridyl)methyl]pyridine-3-carboxamide]
A (*A = <33% inhibition)	CC(=O)N(CC1CC1)c1ccc(-c2ccc(C(=O)NCc3nccs3)cn2)cc1Cl [I-T2356, 6-[4-[acetyl(cyclopropylmethyl)amino]-3-chloro-phenyl]-N-(thiazol-2-ylmethyl)pyridine-3-carboxamide]
C (C = ≥66% inhibition)	CC(=O)N(CC1CC1)c1ccc(-c2ccc(C(=O)NCc3ccc(C#N)nc3)cn2)cc1Cl [I-T2371, 6-[4-[acetyl(cyclopropylmethyl)amino]-3-chloro-phenyl]-N-[(6-cyano-3-pyridyl)methyl]pyridine-3-carboxamide]
A (*A = <33% inhibition)	CC(=O)N(CC1CC1)c1ccc(-c2ccc(C(=O)NCc3cscn3)cn2)cc1Cl [I-T2354, 6-[4-[acetyl(cyclopropylmethyl)amino]-3-chloro-phenyl]-N-(thiazol-4-ylmethyl)pyridine-3-carboxamide]
B (B = >33 to <66% inhibition)	CC(=O)N(CC1CC1)c1ccc(-c2ccc(C(=O)NCCc3ccc(C)nc3)cn2)cc1Cl [I-T2309, 6-[4-[Acetyl(cyclopropylmethyl)amino]-3-chloro-phenyl]-N-[2-(6-methyl-3-pyridyl)ethyl]pyridine-3-carboxamide]
C (C = ≥66% inhibition)	CC(=O)N(CC1CC1)c1ccc(-c2ccc(C(=O)NCCc3cn[nH]c3)cn2)cc1Cl [I-T2111, 6-[4-[Acetyl(cyclopropylmethyl)amino]-3-chloro-phenyl]-N-[2-(1H-pyrazol-4-yl)ethyl]pyridine-3-carboxamide]
B (B = >33 to <66% inhibition)	CC(=O)N(CC1CC1)c1ccc(-c2ccc(C(=O)NCc3cccs3)cn2)cc1Cl [I-T2352, 6-[4-[acetyl(cyclopropylmethyl)amino]-3-chloro-phenyl]-N-(2-thienylmethyl)pyridine-3-carboxamide]
